The record followed here is ChEMBL document CHEMBL1201862, “PubChem BioAssay data set” (2004).

Molecules are shown by their SMILES.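 48-hour exposure; five concentrations; linearly interpolated endpoints. GI50 is the concentration that inhibits growth by half.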 Calls of active or inactive are those of the source. Rule as the data show it: active = GI50 up to about 1.1 µM and inactive = higher. A value given as a limit tells only on which side of the number the result lay.

Common to all, as to assay: DTP human tumour cell line panel, 48 h
For assay [1], the system named is A549.
For assay [2], the system named is BT-549.
The test system of assay [3] is CAKI-1.
The test system of assay [4] is EKVX.
For assay [5], the system named is HCC 2998.
Assay [6] concerns HCT-15.
Assay [7] deals with HOP-92.
Assay [8] concerns Hs-578T.
The subject of assay [9] is LOX IMVI.
Assay [10] concerns M14.
For assay [11], the system named is MCF7.
Assay [12] deals with NCI-H460.
For assay [13], the system named is OVCAR-3.
The test system of assay [14] is OVCAR-5.
In assay [15] the test system is PC-3.
Assay [16] relates to RXF 393.
The subject of assay [17] is SK-MEL-2.
In assay [18] the test system is SNB-75.
Assay [19] deals with U-251.

The term GI50 denotes the concentration that inhibits growth by half.

In the case of `Clc1cccc(Cl)c1/C=N/C12CC3CC(CC(C3)C1)C2`, the GI50 in assay [1] is > 10 µM (inactive); in assay [2] it was > 10 µM (inactive); in assay [3], > 10 µM (inactive); in assay [4] it was > 10 µM (inactive); in assay [5], > 10 µM (inactive); in assay [6] it was above 10 µM. The GI50 in assay [7], in [8], in assay [9], in assay [10], in assay [11] and in assay [12] was > 10 µM (inactive) throughout. Further, the GI50 was > 10 µM (inactive) in assay [13]; > 10 µM (inactive) in [14]; > 10 µM (inactive) in assay [15]; > 10 µM (inactive) in [16]; > 10 µM (inactive) in assay [17]; 6.47 µM (inactive) in assay [18]. In addition, in assay [19], the GI50 is > 10 µM (inactive).

As to `CCC(=O)c1cc(C(=O)C(=S)SC)cc(C(=O)C(=S)SC)c1`, the GI50 in assay [1] is > 100 µM (inactive); in [2], > 100 µM (inactive); in assay [3], > 100 µM (inactive); in [4], > 100 µM (inactive); in assay [5] it was > 100 µM (inactive); in [6], above 60 µM. Moreover, the GI50 in assay [7] was > 59.7 µM (inactive); in assay [8] it was > 49.7 µM (inactive); in assay [9], 4.19 µM (inactive); in assay [10] it was > 100 µM (inactive); in assay [11], > 72.1 µM (inactive); in assay [12], > 100 µM (inactive). Further, the GI50 in [13] is > 54.2 µM (inactive); in assay [14], > 100 µM (inactive); in assay [15], > 100 µM (inactive); in [16], > 100 µM (inactive); in assay [17] it was > 100 µM (inactive); in assay [18], > 100 µM (inactive). Also, in assay [19], the GI50 was > 69.3 µM (inactive).

As to `Sc1nn2c(COc3cccc(OCc4nnc5sc(S)nn45)c3)nnc2s1`, the GI50 is > 100 µM (inactive) in [1]; > 100 µM (inactive) in [2]; > 100 µM (inactive) in assay [3]; > 100 µM (inactive) in assay [4]; > 100 µM (inactive) in assay [5]; 52.8 µM in [6]. The GI50 in assay [7] was > 100 µM (inactive); in assay [8], > 100 µM (inactive); in assay [9] it was 34.4 µM (inactive); in assay [10], > 100 µM (inactive); in assay [11], 76.2 µM (inactive); in assay [12], 31.8 µM (inactive). Further, the GI50 in assay [13], in [14], in assay [15], in assay [16], in [17] and in assay [18] was > 100 µM (inactive) each time. Moreover, in assay [19], the GI50 is > 100 µM (inactive).

Take `c1ccc2c(c1)nnn2C1CCCCO1` (stereo not given): the GI50 in assay [1] was > 100 µM (inactive); in assay [2] it was > 100 µM (inactive); in assay [3], > 100 µM (inactive); in [4] it was > 100 µM (inactive); in [5], > 100 µM (inactive); in [6], above 100 µM. Moreover, the GI50 in assay [7], in [8], in [9], in assay [10], in [11] and in [12] was > 100 µM (inactive) throughout. The GI50 in [13], in assay [14], in assay [15], in assay [16], in [17] and in assay [18] was > 100 µM (inactive) throughout. Further, in [19], the GI50 was > 100 µM (inactive).

With `NC(=O)N/N=C(\Cc1cc(=O)oc2cc(O)ccc12)C(=O)Nc1ccccc1C(N)=O`, the GI50 is > 100 µM (inactive) in assay [1]; > 100 µM (inactive) in [2]; > 100 µM (inactive) in assay [3]; > 100 µM (inactive) in [4]; 61 µM (inactive) in assay [5]; above 100 µM in assay [6]. For the same compound, the GI50 in [7], in assay [8], in assay [9], in assay [10], in assay [11] and in assay [12] was > 100 µM (inactive) in each case. For the same compound, the GI50 in assay [13], in [14], in assay [15], in assay [16], in [17] and in assay [18] was > 100 µM (inactive) each time. Besides, the GI50 in assay [19] was > 100 µM (inactive).

Take `COc1ccc(C[C@@H](CO)NC2=C(C#N)CCC2)cc1`: the GI50 was 86.7 µM (inactive) in assay [1]; 30.4 µM (inactive) in [2]; 43 µM (inactive) in [3]; 35.7 µM (inactive) in assay [4]; 19.6 µM (inactive) in [5]; 40.4 µM in assay [6]. In addition, the GI50 in assay [7] is 43.5 µM (inactive); in [8], 20 µM (inactive); in assay [9] it was 23.7 µM (inactive); in assay [10], 41.4 µM (inactive); in assay [11], 26.9 µM (inactive); in assay [12], 64.7 µM (inactive). The GI50 in assay [13] is 36.8 µM (inactive); in assay [14] it was 71.6 µM (inactive); in assay [15], 32.3 µM (inactive); in [16], 48.6 µM (inactive); in [17] it was > 100 µM (inactive); in assay [18], 22.2 µM (inactive). In [19], the GI50 was > 100 µM (inactive).

With `CN(CCNC(=O)c1nn(-c2ccccc2)c2c1ccc1ccccc12)CCNC(=O)c1nn(-c2ccccc2)c2c1ccc1ccccc12`, the GI50 in assay [1] is 2.94 µM (inactive); in [2] it was 10.2 µM (inactive); in assay [3] it was 3.33 µM (inactive); in assay [4] it was 1.98 µM (inactive); in assay [5], 1.53 µM (inactive); in [6], 1.76 µM. Also, the GI50 in assay [7] is 1.73 µM (inactive); in assay [8], 2.14 µM (inactive); in assay [9], 1.77 µM (inactive); in assay [10], 1.78 µM (inactive); in [11], 1.98 µM (inactive); in [12] it was 1.41 µM (inactive). In addition, the GI50 was 1.71 µM (inactive) in assay [13]; 4.49 µM (inactive) in assay [14]; 2.13 µM (inactive) in assay [15]; 1.62 µM (inactive) in [16]; 1.86 µM (inactive) in assay [17]; 2.18 µM (inactive) in assay [18]. Also, the GI50 in [19] was 1.57 µM (inactive).

For the compound `COc1ccccc1NC(=S)N/N=C(/c1ccccc1)c1ccccn1`, the GI50 in [1] is 0.141 µM (active); in assay [2], 2.15 µM (inactive); in assay [3] it was < 0.0421 µM (active); in assay [4], 0.0968 µM (active); in [5], 5.97 µM (inactive); in [6], 0.045 µM. Besides, the GI50 in [7] is 0.522 µM (active); in assay [8], 7.05 µM (inactive); in assay [9], 0.0254 µM (active); in [10], < 0.0249 µM (active); in assay [11], 0.0228 µM (active); in assay [12], 0.158 µM (active). In addition, the GI50 in assay [13] is < 0.0143 µM (active); in assay [14] it was 0.0635 µM (active); in assay [15], < 0.0142 µM (active); in assay [16] it was 1.07 µM (active); in assay [17], 4.4 µM (inactive); in [18], 0.998 µM (active). For the same compound, in assay [19], the GI50 is 0.0635 µM (active).

`CN(C)c1ccc(/C=C(\NC(=O)c2ccccc2)C2=NC(CCC(=O)O)C(=O)O2)cc1` (stereo not given): the GI50 was > 50 µM (inactive) in [1]; > 50 µM (inactive) in assay [2]; > 50 µM (inactive) in [3]; > 50 µM (inactive) in [4]; > 50 µM (inactive) in assay [5]; above 50 µM in [6]. Also, the GI50 in assay [7] is > 50 µM (inactive); in assay [8], > 50 µM (inactive); in assay [9], > 44.9 µM (inactive); in assay [10], > 50 µM (inactive); in [11] it was > 50 µM (inactive); in assay [12], > 50 µM (inactive). In addition, the GI50 in assay [13], in assay [14], in assay [15], in [16], in [17] and in assay [18] was > 50 µM (inactive) throughout. Also, the GI50 in assay [19] was > 47.2 µM (inactive).

Turning to `Cc1cc(C)nc(NS(=O)(=O)c2ccc(NC(=O)c3ccc4nc5ccccc5c(Nc5ccc(S(=O)(=O)Nc6nc(C)cc(C)n6)cc5)c4c3)cc2)n1`, the GI50 in [1] is > 100 µM (inactive); in assay [2], 19 µM (inactive); in assay [3] it was > 100 µM (inactive); in assay [4], > 100 µM (inactive); in assay [5], 61.8 µM (inactive); in assay [6], above 100 µM. In addition, the GI50 is 23 µM (inactive) in assay [7]; 69.7 µM (inactive) in [8]; 19.1 µM (inactive) in assay [9]; > 100 µM (inactive) in assay [10]; 37.8 µM (inactive) in assay [11]; 88.5 µM (inactive) in assay [12]. In addition, the GI50 in [13] is > 100 µM (inactive); in [14], > 100 µM (inactive); in [15], 59.7 µM (inactive); in assay [16], 34.9 µM (inactive); in assay [17] it was 36.2 µM (inactive); in assay [18] it was > 100 µM (inactive). Further, the GI50 in [19] was 35.3 µM (inactive).
